From patent US12507720B2, “Use of anthocyanin-anionic polysaccharide complex for preventing or treating influenza virus A infection” (JBKLAB CO., LTD., priority 2019, dated 2025)

Type: physicochemical
Details: pH 3
Method: The amount of anthocyanin was confirmed using a spectrophotometer to confirm the stability of the complex prepared in Example 1 over time. 40 ml of the anthocyanin-alginic acid complex was centrifuged at 13000 rpm for 30 minutes, and the precipitate was dispersed in PBS (pH 3 or pH 7.4). In addition, anthocyanin was prepared by dissolving thereof in PBS (pH 3 or pH 7.4). The absorbance of the complex and anthocyanin dispersed in PBS (pH 3 or pH 7.4) was measured with a spectrophotometer at each wavelength band of 513 nm or 520 nm, respectively, and the change in the absorbance value of anthocyanin was observed.

For anthocyanin, the “stability (in words)” value was “stable”.
